# Measurements: PMC7766124, “Improved Cell Selectivity of Pseudin-2 via Substitution in the Leucine-Zipper Motif: In Vitro and In Vivo Antifungal Activity” (Antibiotics, 2020)
# Read-outs that look alike come from different tables or passages of the source. No end group written: not given here.
# Assays:
# [1] = test system: C. krusei; format: cell-based, C. krusei (CCARM 14017); settings: 36 h
# From the text: (§1) Aspergillus flavus (KCTC 6905), A. fumigatus (KCTC 6145), Fusarium moniliforme (KCTC 6149), F. oxysporum (KCTC 16909), C. albicans (KCTC 7270), C. krusei (CCARM 14017), C. parapsilosis (CCARM 14016), C. tropicalis (KCTC 7221), and T. beigelii (KCTC 7707) were obtained from the Korea Collection for Type Cultures (KCTC) and Culture Collection of Antimicrobial Resistant Microbes (CCARM). Mold and yeast fungi were pre-grown on potato dextrose (PD) and yeast extract peptone dextrose (YPD) agars, respectively.
# (§2) Antifungal activity of peptides was performed by microtiter plate assays. Fungal conidia from four-day-old molds were collected using 0.08% Triton X-100 (v/v), and pre-cultivated yeast cells were adjusted to 2 × 10^4 spores/mL in 10 mM sodium phosphate buffer (SP, pH 7.2) or 10 mM 2-(N-morpholino)ethanesulfonic acid (MES) buffer (pH 5.5) supplemented with 20% culture medium, followed by addition to peptide solutions (0.25, 0.5, 1, 1.5, 2, 4, 6, 8, 12, 16, 32, 48, and 64 µM) in 96-well microtiter plates. After incubation for 36 h at 28 °C, the hyphal growth of conidia and the proliferation of yeast cells were observed under a light microscope. All assays were performed in triplicate. The MIC values were defined as the lowest concentration of samples that reduced fungal germination (for mold) or cell proliferation (for yeast) by more than 90% [34].
# [2] = test system: C. tropicalis; assay: C. tropicalis skin infection mouse model; format: in vivo, BALB/C female mice
# Protocol: All animal experiments and procedures were performed with the approval of the Institutional Animal Care and Use Committee (IACUC) of Sunchon National University, Korea (SCNU IACUC-2019-10). BALB/C female mice (six weeks old) were obtained from Koatech Co. (Pyongtaek, Gyeonggido, Korea) and divided into three groups (n = 4): control, pseudin-2, and P2-LZ4 groups. The skin on the back of each mouse was shaved 1 h before infection, and the mice were anesthetized by inhalation of 5% (induction) and 2% (maintenance) isoflurane in pure oxygen. Mice were then subjected to subcutaneous infection with 100 µL C. tropicalis (10^7 cells/mL) by injection into the dorsum of each mouse. At 24 h after infection, 100 µL PBS, pseudin-2 (0.1 mg/mL), or P2-LZ4 (0.1 mg/mL) was injected into the same site. At four days after peptide injection, mice were euthanized by CO2 inhalation, and the infected skin tissues were excised, fixed in 4% paraformaldehyde, embedded in paraffin, stained with H&E, and observed by light microscopy.
# [3] = test system: A. flavus; format: cell-based, Aspergillus flavus (KCTC 6905); settings: 36 h
# From the text: as §1, §2
# [4] = test system: C. parapsilosis; format: cell-based, C. parapsilosis (CCARM 14016); settings: 36 h
# From the text: as §1, §2
# [5] = Calcein leakage from fungus-mimic artificial vesicles; settings: fungus-mimic PC/PE/PI/ergosterol vesicles, 20 μM lipid; peptide/lipid molar ratio 0.05; 100% = 0.03% Triton X-100; three independent experiments
# Protocol: The permeability of peptides in calcein-entrapped artificial liposomes was assayed by measuring calcein leakage. The desired mixtures of lipids (PC/PE/PI/ergosterol, 5:4:1:2 and PC/CH/SM, 2:1:1, weight ratio) were dissolved in chloroform at 10 mg/mL, dried in a glass tube under nitrogen, and then lyophilized overnight to remove residual solvent. The dried lipid films were resuspended in 1 mL of dye solution (80 mM calcein, 10 mM HEPES buffer, pH 7.2) at 50 °C and vortexed, followed by freeze-thawing for nine cycles and extrusion with polycarbonate filters (0.2-μm pore-size) using an Avanti Mini-Extruder (Avanti Polar Lipids Inc., Alabaster, AL, USA). Free calcein was removed using PD-10 desalting columns (GE Healthcare Life Science, Seoul, Korea). Calcein-entrapped vesicles of 20 μM lipids were incubated with peptides at concentrations of […], 0.02, 0.05, and 0.1 molar ratio (peptide/lipid) and the fluorescence was assessed at 480 (Ex) and 520 (Em) nm using a microtiter SpectraMax M5 reader (Molecular Devices). Complete (100%) release was achieved by the addition of 0.03% Triton X-100 (v/v).
substance,measurement,setting,value
GLNALKKVFQGIHEAIKLINNHVQ-NH2 [Pseudin-2],MIC,[1]; pH 5.5,8 (8) µM
same,MIC,[1]; pH 7.2,8 (8) µM
same,histological evaluation of skin tissues (H&E),"[2]; 100 µL of 0.1 mg/mL peptide s.c. 24 h after infection, tissues taken four days after peptide injection",able to recover from histological lesions
same,skin lesions (swelling and redness in the dorsal skin),"[2]; 100 µL of 0.1 mg/mL peptide s.c. 24 h after s.c. infection, monitored seven days, n = 4",reduced swelling and redness
same,MIC,[3]; pH 5.5,16 µM
same,MIC,[3]; pH 7.2,64 µM
same,MIC,[4]; pH 5.5,>64 (>64) µM
same,MIC,[4]; pH 7.2,>64 (>64) µM
same,leakage of calcein,[5],80.1%
